pIC50: −log10 of the molar value.
How the values were obtained:
[1] = biological target: T1, Aurora A (Homo sapiens, UniProt O14965); assay: IC50 determination for inhibitors of Aurora A (96 MTP-ELISA); format: biochemical; conditions: His4-tagged full-length Aurora A 250 ng/ml, PKB-GSK2 200 nM, ATP 4 μM, 90 min at room temperature; read-out: IC50 Aurora A kinase inhibition
T1 construct: C-terminally Histidine4 (His4)-tagged Aurora A full-length protein
T1 sequence (O14965 1-403): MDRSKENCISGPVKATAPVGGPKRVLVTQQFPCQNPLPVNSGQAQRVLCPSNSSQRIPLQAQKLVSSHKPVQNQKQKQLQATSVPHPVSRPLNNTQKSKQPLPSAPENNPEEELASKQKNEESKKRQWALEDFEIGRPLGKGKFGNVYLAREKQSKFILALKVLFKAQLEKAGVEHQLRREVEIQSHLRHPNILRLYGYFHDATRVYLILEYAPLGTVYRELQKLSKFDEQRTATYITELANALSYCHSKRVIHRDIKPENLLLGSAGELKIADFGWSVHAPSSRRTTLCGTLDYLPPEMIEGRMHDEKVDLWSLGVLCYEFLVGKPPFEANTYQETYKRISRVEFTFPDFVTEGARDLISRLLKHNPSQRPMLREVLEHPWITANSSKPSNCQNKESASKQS
Text: IC50 Determination for Inhibitors of Aurora A
Aurora A is a serine threonine kinase involved in spindle assembly and chromosome segregation.
The assay is a typically ELISA-type assay where biotinylated substrate (PKB-GSK2) is phosphorylated. Phosphorylation is detected by peroxidase (POD) labelled polyclonal antibody (PAK<M-Ig>S-IgG-POD) and phosphopeptide monoclonal antibody (Mab) (MAK<P-GSK>M-27E5-IgG). The assay is validated for IC50-determination.
Aurora A-His-4 C-terminally Histidine4 (His4)-tagged Aurora A full-length protein, stock solution 0.7 mg/ml, final conc.: 250 ng/ml
PKB-GSK2 biotinylated peptide derived from human GSK3-alpha sequence (Biotin-SGRARTSSFAEPGG-CONH2), stock solution 600 μM, final conc.: 200 nM
ATP Adenosine-5′-triphosphate 1 mM, diluted in kinase buffer, (Roche Diagnostics GmbH, Cat. No.: 127531-001,), final conc.: 4 μM
Kinase buffer 50 mM TRIS, 10 mM MgCl2, 1 mM DTT, 0.1% Tween 20, pH 7.8
This assay is performed in 96-well format for IC50 determination with 5 samples (each with 8 concentrations by twofold testing), 100 μl incubation volume and the following plate layout:
Step/Action 1. Sample preparation: add 24 μl per well samples (descending sequence) diluted in kinase buffer to assay plate (final conc. for DMSO 1%). 2. Add directly 16 μl Aurora-A-his-4 diluted in kinase buffer to assay plate. 3. Add directly 40 μl per well PKB-GSK2/ATP mixture to assay plate, (final conc.: Aurora A=250 ng/ml, GSK2=200 nM, ATP=4 μM). Negative control: without ATP. 4. Incubate assay plate for exactly 90 min at room temperature. 5. Stop reaction by adding 20 μl EDTA in all wells. 6. Wash assay plate 3× with 200 μl washing buffer per well. 7. Add 100 μl MAK<P-GSK>M27E5-IgG (1:10000) and PAK<M-Ig>S-IgG-POD (1:6000) dissolved in 3% BSA/PBS-T to assay plate per well. 8. Incubate assay plate for 60 min at room temperature. 9. Wash assay plate 3× with 200 μl washing buffer per well 10. Add 100 μl ABTS solution to assay plate per well, incubate for approx. 4 min at RT on MTP shaker. 11. Measure absorption at 405/492 nm. 12. Calculate % inhibition as: (1−(Esample−ENC)/(EPC−ENC))×100 13. Calculate IC50 using a non-linear curve fit (XLfit software (ID Business Solution Ltd., Guilford, Surrey, UK))

[2] = system: HCT 116 cells; assay: CellTiter-Glo assay in HCT 116 cells (antiproliferative activity); format: cell-based; conditions: HCT 116 human colon carcinoma cells, 5 days (120 h) incubation, CellTiter-Glo luminescence
Text: Antiproliferative Activity
CellTiter-Glo™ Assay in HCT 116 Cells
The CellTiter-Glo™ Luminescent Cell Viability Assay (Promega) is a homogeneous method of determining the number of viable cells in culture based on quantitation of the ATP present, which signals the presence of metabolically active cells.
HCT 116 cells (human colon carcinoma, ATCC-No. CCI-247) were cultivated in RPMI 1640 medium with GlutaMAX™ I (Invitrogen, Cat-No. 61870-010), 2.5% Fetal Calf Serum (FCS, Sigma Cat-No. F4135 (FBS)); 100 Units/ml penicillin/100 μg/ml streptomycin (=Pen/Strep from Invitrogen Cat. No. 15140). For the assay the cells were seeded in 384 well plates, 1000 cells per well, in the same medium. The next day the test compounds were added in various concentrations ranging from 30 μM to 0.0015 μM (10 concentrations, 1:3 diluted). After 5 days the CellTiter-Glo™ assay was done according to the instructions of the manufacturer (CellTiter-Glo™ Luminescent Cell Viability Assay, from Promega). In brief: the cell-plate was equilibrated to room temperature for approximately 30 minutes and than the CellTiter-Glo™ reagent was added. The contents were carefully mixed for 15 minutes to induce cell lysis. After 45 minutes the luminescent signal was measured in Victor 2, (scanning multiwell spectrophotometer, Wallac).
Medium: RPMI 1640 with GlutaMAX™ I (Invitrogen, Cat-Nr. 61870), 5% FCS (Sigma Cat.-No. F4135), Pen/Strep (Invitrogen, Cat No. 15140).
HCT116 (ATCC-No. CCI-247): 1000 cells in 60 μl per well of 384 well plate (Greiner 781098, μClear-plate white)
After seeding incubate plates 24 h at 37° C., 5% CO2
2nd. Day: Induction (Treatment with Compounds, 10 Concentrations):
In order to achieve a final concentration of 30 μM as highest concentration 3.5 μl of 10 mM compound stock solution were added directly to 163 μl media. Then step e) of the dilution procedure described below, was followed.
In order to achieve the second highest to the lowest concentrations, a serial dilution with dilution steps of 1:3 was followed according to the procedure (a-e) as described here below: • for the second highest concentration add 10 μl of 10 mM stock solution of compound to 20 μl dimethylsulfoxide (DMSO) • dilute 8×1:3 (always 10 μl to 20 μl DMSO) in this DMSO dilution row (results in 9 wells with concentrations from 3333.3 μM to 0.51 μM) • dilute each concentration 1:47.6 (3.5 μl compound dilution to 163 μl media) • add 10 μl of every concentration to 60 μl media in the cell plate resulting in final concentration of DMSO: 0.3% in every well and resulting in 10 final concentration of compounds ranging from 30 μM to 0.0015 μM. • Each compound is tested in triplicate. • Incubate 120 h (5 days) at 37° C., 5% CO2 Analysis:
Add 30 μl CellTiter-Glo™ Reagent (prepared from CellTiter-Glo™ Buffer and CellTiter-Glo™ Substrate (lyophilized) purchased from Promega) per well, • shake 15 minutes at room temperature • incubate further 45 minutes at room temperature without shaking Measurement:
Victor 2 scanning multiwell spectrophotometer (Wallac), Luminescence mode (0.5 sec/read, 477 nm)
Determine IC50 using a non-linear curve fit (XLfit software (ID Business Solution Ltd., Guilford, Surrey, UK))

Structure (SMILES)	pIC50 [1]	pIC50 [2]
CC(C)c1cc(-c2nc3cc4c(cc3[nH]2)NC(=O)C42CCCC2)[nH]n1 [Example 28, 2-(5-Isopropyl-2H-pyrazol-3-yl)-spiro-5,7-dihydro[cyclopentane-1′,7-imidazo[4,5-f]indol]-6(3H)-one]	5.82 to 6.30	5.00 to 7.00
Cc1cc(-c2nc3cc4c(cc3[nH]2)C(C)(C)CC(=O)N4)n[nH]1 [Example 3, 8,8-Dimethyl-2-(5-methyl-1H-pyrazol-3-yl)-1,5,7,8-tetrahydro-imidazo[4,5-g]quinolin-6-one]	6.67	4.00 to 5.00
Cc1[nH]nc(-c2nc3cc4c(cc3[nH]2)C(C)(C)C(=O)N4)c1C [Example 17, 2-(4,5-Dimethyl-1H-pyrazol-3-yl)-7,7-dimethyl-5,7-dihydro-1H-imidazo[4,5-f]indol-6-one]	6.30 to 8.00	5.00 to 7.00
Cc1cc(-c2nc3cc4[nH]c(=O)n(C(C)C)c4cc3[nH]2)n[nH]1 [Example 11, 3-Isopropyl-6-(5-methyl-1H-pyrazol-3-yl)-3,5-dihydro-1H-benzo[1,2-d;4,5-d′]diimidazol-2-one]	6.80	4.00 to 5.00
CC(=O)N1CC(C)(C)c2cc3nc(-c4cc(C)n[nH]4)[nH]c3cc21 [Example 2, 1-[7,7-Dimethyl-2-(5-methyl-2H-pyrazol-3-yl)-6,7-dihydro-3H-imidazo[4,5-f]indol-5-yl]-ethanone]	6.30 to 8.00	5.33
Cc1cc(-c2nc3cc4c(cc3[nH]2)C(C)(C)C(=O)N4C(C)C)[nH]n1 [Example 34, 5-Isopropyl-7,7-dimethyl-2-(5-methyl-2H-pyrazol-3-yl)-5,7-dihydro-1H-imidazo[4,5-f]indol-6-one]	6.30 to 8.00	5.00 to 7.00
Cc1cc(-c2nc3cc4c(cc3[nH]2)N(C)C(=O)C4(C)C)n[nH]1 [Example 31, 5,7,7-Trimethyl-2-(5-methyl-1H-pyrazol-3-yl)-5,7-dihydro-3H-imidazo[4,5-f]indol-6-one]	6.30 to 8.00	5.00 to 7.00
CCCc1cc(-c2nc3cc4c(cc3[nH]2)C(C)(C)CC(=O)N4)[nH]n1 [Example 23, 8,8-Dimethyl-2-(5-propyl-2H-pyrazol-3-yl)-1,5,7,8-tetrahydro-imidazo[4,5-g]quinolin-6-one]	6.30 to 8.00	5.00 to 7.00
CC(C)Cc1cc(-c2nc3cc4c(cc3[nH]2)C(C)(C)C(=O)N4)[nH]n1 [Example 6, 2-(5-isobutyl-2H-pyrazol-3-yl)-7,7-dimethyl-5,7-dihydro-1H-imidazo[4,5-f]indol-6-one]	5.82 to 6.30	5.00 to 7.00
O=C1Nc2cc3[nH]c(-c4ccn[nH]4)nc3cc2C12CCCC2 [Example 27, 2-(2H-pyrazol-3-yl)-spiro-5,7-dihydro[cyclopentane-1′,7-imidazo[4,5-f]indol]-6(3H)-one]	6.30 to 8.00	5.00 to 7.00
Cc1cc(-c2nc3cc4c(cc3[nH]2)NC(=O)C42CCCC2)[nH]n1 [Example 7, 2-(5-Methyl-2H-pyrazol-3-yl)-spiro-5,7-dihydro[cyclopentane-1′,7-imidazo[4,5-f]indol]-6(3H)-one]	6.30 to 8.00	5.00 to 7.00
CCCc1cc(-c2nc3cc4c(cc3[nH]2)N(CCC)C(=O)C4(C)C)[nH]n1 [Example 37, 7,7-Dimethyl-5-propyl-2-(5-propyl-2H-pyrazol-3-yl)-5,7-dihydro-3H-imidazo[4,5-f]indol-6-one]	6.30 to 8.00	5.00 to 7.00
Cc1cc(-c2nc3cc4[nH]c(=O)n(C)c4cc3[nH]2)n[nH]1 [Example 10, 3-Methyl-6-(5-methyl-1H-pyrazol-3-yl)-3,5-dihydro-1H-benzo[1,2-d;4,5-d′]diimidazol-2-one]	6.30 to 8.00	
CC1(C)CC(=O)Nc2cc3nc(-c4cc[nH]n4)[nH]c3cc21 [Example 24, 8,8-Dimethyl-2-(1H-pyrazol-3-yl)-1,5,7,8-tetrahydro-imidazo[4,5-g]quinolin-6-one]	5.82 to 6.30	5.00 to 7.00
